Measured values: ChEMBL document CHEMBL1949499, “Nicotinic acids: liver-targeted SCD inhibitors with preclinical anti-diabetic efficacy” (Bioorg Med Chem Lett, 2011)
The source made the active and inactive calls. No cut-off for these calls is given here.

Legend:
Acyl-CoA desaturase 1 [1] = biological target: T1, Acyl-CoA desaturase 1 (Rattus norvegicus, UniProt P07308); experiment: Inhibition of rat SCD1
T1 sequence (P07308 whole entry): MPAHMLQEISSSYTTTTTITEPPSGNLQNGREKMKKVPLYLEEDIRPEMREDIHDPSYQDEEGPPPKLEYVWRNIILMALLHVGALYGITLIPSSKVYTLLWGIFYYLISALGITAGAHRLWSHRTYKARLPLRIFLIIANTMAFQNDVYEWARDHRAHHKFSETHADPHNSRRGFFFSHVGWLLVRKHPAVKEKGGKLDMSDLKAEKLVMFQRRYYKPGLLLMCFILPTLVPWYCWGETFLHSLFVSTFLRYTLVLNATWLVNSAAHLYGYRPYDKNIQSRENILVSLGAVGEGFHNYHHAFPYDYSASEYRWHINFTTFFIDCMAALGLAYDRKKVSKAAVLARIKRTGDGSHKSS

Stearoyl-CoA desaturase = biological target: T2, Stearoyl-CoA desaturase (Homo sapiens, UniProt O00767); experiment: Inhibition of human SCD1 expressed in human HepG2 cells assessed as conversion of [14C]stearic acid to [14C]oleic acid; format: cell-based
T2 sequence (O00767 whole entry): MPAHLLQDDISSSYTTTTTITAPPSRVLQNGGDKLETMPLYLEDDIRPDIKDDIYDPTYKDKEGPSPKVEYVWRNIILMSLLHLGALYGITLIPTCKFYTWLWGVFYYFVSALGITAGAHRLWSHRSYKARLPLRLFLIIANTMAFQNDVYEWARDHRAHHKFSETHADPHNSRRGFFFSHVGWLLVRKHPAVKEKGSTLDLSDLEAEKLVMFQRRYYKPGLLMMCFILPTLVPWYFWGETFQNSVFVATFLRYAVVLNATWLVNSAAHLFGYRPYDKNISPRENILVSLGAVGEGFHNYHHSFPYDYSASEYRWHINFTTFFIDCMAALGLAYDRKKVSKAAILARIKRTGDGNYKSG

[2] = Ratio of drug uptake in left median liver lobe to harderian gland in C57/BL6 mouse at 10 mg/kg, po after 6 hrs; format: ADME, organism-based; design: dose 10 mg/kg, route oral; conditions: in vivo
Acyl-CoA desaturase 1 [3] = biological target: T1, Acyl-CoA desaturase 1; experiment: Inhibition of SCD1 in Sprague-Dawley rat hepatocytes assessed as conversion of [14C]oleic acid formation by HPLC analysis; format: cell-based, Hepatocyte
[4] = Drug uptake in high sucrose/fat free diet fed C57/BL6 mouse liver at 100 mg/kg, po after 3 hrs; format: ADME, organism-based; design: dose 100 mg/kg, route oral; conditions: read-out: Drug uptake
Mus musculus [5] = experiment: Inhibition of SCD activity in high sucrose/fat free diet fed C57/BL6 mouse liver assessed as reduction in conversion of [14C]stearic acid to [14C]oleic acid at 100 mg/kg, po; format: functional
[6] = Plasma concentration in high sucrose/fat free diet fed C57/BL6 mouse at 100 mg/kg, po after 3 hrs; format: ADME, organism-based; design: dose 100 mg/kg, route oral
Mus musculus [7] = experiment: Acute antidiabetic activity in high fat diet fed C57/BL6 mouse eDIO model assessed as increase in glucose clearance at 100 mg/kg, po administered 1 hr prior to glucose challenge by oGTT assay; format: functional
Nucleic Acid = experiment: Ratio of drug uptake in high fat diet fed C57/BL6 mouse eDIO model whole blood to high sucrose/fat free diet fed C57/BL6 mouse plasma; format: ADME; conditions: in vivo
[8] = Drug uptake in high fat diet fed C57/BL6 mouse eDIO model whole blood at 100 mg/kg, po after 3 hrs; format: ADME, organism-based; design: dose 100 mg/kg, route oral; conditions: read-out: Drug uptake
HepG2 = experiment: Selectivity ratio of IC50 for human SCD1 expressed in human HepG2 cells to IC50 for rat SCD1 in Sprague-Dawley rat hepatocytes; format: cell-based

| Compound | IC50 (Acyl-CoA desaturase 1 [1]) [nM] | IC50 (Stearoyl-CoA desaturase) [µM] | IC50 (Acyl-CoA desaturase 1 [3]) [nM] | further results |
| --- | --- | --- | --- | --- |
| O=C(O)c1ccc(N2CCC(Oc3ccccc3C(F)(F)F)CC2)nn1 | > 10000 | – | – | – |
| O=C(O)c1cncc(-c2cnc(N3CCC(Oc4cc(F)ccc4Br)CC3)cn2)c1 | 69 | 6.72 | 1360 | Ratio [2]: 12 |
| O=C(O)Cc1ccc(N2CCC(Oc3ccccc3C(F)(F)F)CC2)nn1 | 2680 | – | – | – |
| O=C(O)c1cncc(-c2ccc(N3CCC(Oc4ccccc4C(F)(F)F)CC3)cc2)c1 | 8440 | – | – | – |
| O=C(O)c1cccc(-c2ccc(N3CCC(Oc4ccccc4C(F)(F)F)CC3)nn2)c1 | 107 | 1.11 | – | – |
| O=C(O)c1cncc(-c2cnc(N3CCC(Oc4cc(F)ccc4Br)CC3)nn2)c1 | 20 | 4.47 | 268 | Ratio [2]: 1.5 |
| O=C(O)c1cncc(-c2ccc(N3CCC(Oc4ccccc4Cl)CC3)nn2)c1 | 166 | > 10 | 1890 | – |
| O=C(O)c1cncc(-c2ccc(N3CCC(Oc4cc(F)c(F)cc4Br)CC3)nn2)c1 | 15 | 8.26 | 563 | – |
| O=C(O)c1cncc(-c2ccc(N3CCC(Oc4c(F)cc(F)cc4Br)CC3)nn2)c1 | > 20000 | – | – | concentration at 3 h [4]: 30.2 µM; inhibition (Mus musculus [5]): inactive; concentration at 3 h [6]: 750 nM; Activity (Mus musculus [7]): inactive; Ratio (Nucleic Acid): < 2; concentration at 3 h [8]: 730 nM |
| O=C(O)c1cncc(-c2cnc(N3CCC(Oc4cc(F)ccc4Br)CC3)nc2)c1 | 77 | 9.42 | 3050 | Ratio [2]: 8 |
| O=C(O)c1cncc(-c2ccc(N3CCC(Oc4ccccc4C(F)(F)F)CC3)nn2)c1 | 129 | > 20 | 1300 | – |
| O=C(O)c1ccc(-c2ccc(N3CCC(Oc4ccccc4C(F)(F)F)CC3)nn2)cc1 | 105 | 0.55 | – | – |
| O=C(O)c1cncc(-c2ccc(N3CCC(Oc4ccccc4I)CC3)nn2)c1 | 27 | 5.08 | 1000 | Ratio IC50 (HepG2): 5 |
| O=C(O)c1cncc(-c2ccc(N3CCC(Oc4ccccc4Br)CC3)nn2)c1 | 47 | 18.3 | 1640 | Ratio IC50 (HepG2): 11 |
| O=C(O)c1cncc(-c2ccc(N3CCC(Oc4cc(F)ccc4Br)CC3)cn2)c1 | 1220 | – | – | – |
| O=C(O)Cc1cncc(-c2ccc(N3CCC(Oc4cc(F)ccc4Br)CC3)nn2)c1 | 20 | 0.78 | 75 | Ratio IC50 (HepG2): 10; Ratio [2]: 4 |
| O=C(O)c1cncc(-c2ccc(N3CCC(Oc4cc(F)ccc4Br)CC3)nn2)n1 | 772 | – | – | – |
| O=C(O)c1cncc(-c2ccc(N3CCC(Oc4cc(F)ccc4Br)CC3)nc2)c1 | 24 | 2.41 | 1930 | Ratio [2]: 3 |
| FC(F)(F)c1ccccc1OC1CCN(c2ccc(-c3cncc(-c4nnn[nH]4)c3)nn2)CC1 | 11000 | – | – | – |
| O=C(O)c1ccc(-c2ccc(N3CCC(Oc4cc(F)ccc4Br)CC3)nn2)nc1 | 8 | 0.128 | 159 | – |
